Measured values taken from PubChem BioAssay (NCI).
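Grown in 96-well plates, cells were treated for 48 hours with each compound at five concentrations. Insufficient inhibition: endpoint recorded as highest concentration tested. The concentration for 50% growth inhibition is given as GI50. TGI: concentration producing complete growth inhibition.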

Columns and labels:
Experiment in all cases: NCI tumour cell line growth inhibition, 48 h; in the data active = GI50 below about 0.43 µM; inactive = the rest
NCI-H460 lung = tested on: NCI-H460 lung
ACHN renal = tested on: ACHN renal
HOP-62 NSCLC = tested on: HOP-62 NSCLC
A549 NSCLC = tested on: A549 NSCLC
786-0 renal = tested on: 786-0 renal
UACC-257 melanoma = tested on: UACC-257 melanoma
RPMI-8226 leukemia = tested on: RPMI-8226 leukemia
NCI-H23 lung = tested on: NCI-H23 lung
UO-31 renal = tested on: UO-31 renal
OVCAR-8 ovarian = tested on: OVCAR-8 ovarian
SN12C renal = tested on: SN12C renal
DU-145 prostate = tested on: DU-145 prostate
A498 renal = tested on: A498 renal
LOX IMVI melanoma = tested on: LOX IMVI melanoma
SF-295 CNS = tested on: SF-295 CNS
MALME-3M melanoma = tested on: MALME-3M melanoma
NCI-H226 lung = tested on: NCI-H226 lung
OVCAR-5 ovarian = tested on: OVCAR-5 ovarian
SF-268 CNS = tested on: SF-268 CNS
HCT-116 colon = tested on: HCT-116 colon
CCRF-CEM leukemia = tested on: CCRF-CEM leukemia
HCC-2998 colon = tested on: HCC-2998 colon
SNB-19 CNS = tested on: SNB-19 CNS
MCF7 breast = tested on: MCF7 breast
PC-3 prostate = tested on: PC-3 prostate
HS 578T breast = tested on: HS 578T breast
SF-539 CNS = tested on: SF-539 CNS
U251 CNS = tested on: U251 CNS
COLO 205 colon = tested on: COLO 205 colon

FC(F)(F)c1cc2c(Cl)ncnc2n1CCN1CCOCC1
> 100 µM: TGI (NCI-H460 lung) | TGI (ACHN renal) | TGI (HOP-62 NSCLC) | TGI (A549 NSCLC) | TGI (786-0 renal) | TGI (RPMI-8226 leukemia) | TGI (SN12C renal) | TGI (DU-145 prostate) | TGI (A498 renal) | TGI (SF-295 CNS) | TGI (NCI-H226 lung) | TGI (OVCAR-5 ovarian) | TGI (HCT-116 colon) | TGI (CCRF-CEM leukemia) | TGI (MCF7 breast) | TGI (COLO 205 colon)
36.6 µM: TGI (PC-3 prostate)
74.4 µM: TGI (NCI-H23 lung)
33.8 µM: TGI (SF-268 CNS)
8.99 µM: TGI (UO-31 renal)
67.3 µM: TGI (MALME-3M melanoma)
42.2 µM: TGI (SF-539 CNS)
5.11 µM: TGI (HCC-2998 colon)
29.4 µM: TGI (OVCAR-8 ovarian)
3.4 µM: TGI (LOX IMVI melanoma)
32.9 µM: TGI (SNB-19 CNS)
30.2 µM: TGI (UACC-257 melanoma)
inactive: GI50 (NCI-H460 lung) 23.2 µM | GI50 (ACHN renal) 7.65 µM | GI50 (HOP-62 NSCLC) 38.9 µM | GI50 (A549 NSCLC) > 100 µM | GI50 (786-0 renal) 37 µM | GI50 (UACC-257 melanoma) 10.5 µM | GI50 (RPMI-8226 leukemia) 31.9 µM | GI50 (NCI-H23 lung) 17.9 µM | GI50 (UO-31 renal) 2.53 µM | GI50 (OVCAR-8 ovarian) 8.45 µM | GI50 (SN12C renal) 19.7 µM | GI50 (DU-145 prostate) 28.9 µM | GI50 (A498 renal) > 100 µM | GI50 (LOX IMVI melanoma) 1.75 µM | GI50 (SF-295 CNS) 24.7 µM | GI50 (MALME-3M melanoma) 22.1 µM | GI50 (NCI-H226 lung) 99 µM | GI50 (OVCAR-5 ovarian) > 100 µM | GI50 (SF-268 CNS) 14.8 µM | GI50 (HCT-116 colon) 4.63 µM | GI50 (CCRF-CEM leukemia) 16.6 µM | GI50 (HCC-2998 colon) 2.23 µM | GI50 (SNB-19 CNS) 15.3 µM | GI50 (MCF7 breast) 25 µM | GI50 (PC-3 prostate) 11.3 µM | GI50 (HS 578T breast) 16.5 µM | GI50 (SF-539 CNS) 18.1 µM | GI50 (U251 CNS) 14.8 µM | GI50 (COLO 205 colon) 26.4 µM
59 µM: TGI (HS 578T breast)
38.8 µM: TGI (U251 CNS)
